Data published in patent publication US20250332096A1, “BEVERAGE FORMULATION AND METHOD OF PROMOTING CELLULAR HYDRATION BY ENHANCING INTRACELLULAR PERMEATION” (Eastpond Laboratories Limited, priority 2024, published 2025).

Experiments:
[1] = Conductivity of test solutions; type: physicochemical; details: purified water
Experimental: (§1) 1:1 mol/mol stoichiometry complexes were prepared for the experiment. Nicotinic acid/alpha-CD complex was prepared by dissolving 11.22 g nicotinic acid and 98.63 g alpha-CD (89.66 g on dry basis) in 700 ml purified water. Nicotinamide/alpha-CD complex was prepared by dissolving 5.57 g nicotinamide and 49.3 g alpha-CD (44.4 g on dry basis) in 350 ml purified water and L-arginine/alpha-CD complex was prepared by dissolving 15.18 g L-arginine and 94.26 g alpha-CD (85.69 g on dry basis) in 700 ml purified water. Further, for all the three complexes, the liquid was frozen in dry ice bath and lyophilized. The dry lyophilizate was ground and sieved.
(§2) Clarity, pH, conductivity, density, viscosity, turbidity, surface tension and osmolality were determined in solutions prepared with purified water. […]

[2] = Viscosity of test solutions; type: physicochemical; details: purified water
Experimental: as §1
Clarity, pH, conductivity, density, viscosity, turbidity, surface tension and osmolality were determined in solutions prepared with purified water.

[3] = Turbidity of test solutions; type: physicochemical; details: purified water (reference), 0.05%
Experimental: as §1, §2

[4] = Visual inspection (clarity) of test solutions; type: physicochemical; details: purified water
Experimental: as §1, §2

[5] = Surface tension of test solutions; type: physicochemical; details: purified water
Experimental: as §1, §2

[6] = Osmolality of test solutions; type: physicochemical; details: purified water
Experimental: as §1, §2

C. elegans [7] = assay: C. elegans longevity in hydration modified water (Example 5); type: in vivo; details: for Animals alive, % of initial: 0.1% w/w in nutritive media, USA I water
Experimental: C. elegans nematodes were grown in petri-type dishes containing normal nutrient liquid media prepared alternatively with USA I water (described in Example 2) lacking any further additive component (control) or the same water supplemented with a parent α-, β-, or γ-cyclodextrin, and/or a bioactive agent, as an active component of cellular hydration. Fifty ±3 worms were transferred to each dish. Each condition was repeated in triplicate. Experiments were repeated for USA II and BP I waters described in Example 2.
• A. Addition of parent α-, β- and γ-cyclodextrins. • B. Addition of L-arginine and nicotinamide. • C. Addition of inclusion complexes of cyclodextrins with L-arginine and nicotinamide.

C. elegans [8] = assay: C. elegans lifespan Test B (Example 6); type: in vivo
Experimental: C. elegans study performed for the present disclosure is a follow-up and repetition of the observations carried out earlier (referred as Test A here). The results of the current C. elegans study (Test B) were recorded with higher number of animals compared to the Test A (50 worms per treated groups versus 130 worms per groups). Nematodes were maintained and propagated on Nematode Growth Medium—(NGM) containing plates and fed with Escherichia coli OP50 bacteria. The C. elegans strain used in this study is Bristol (N2) as wild-type. FIG. 21, illustrates the lifespan of control and alpha-cyclodextrin-treated worms. The control C. elegans lived on a medium made with tap water. The treated worms were maintained on culture media made with 0.1% alpha-cyclodextrin, 0.1% alpha-CD/nicotinic acid and 0.1% alpha-CD/arginine complex containing tap water.

C. elegans [9] = assay: C. elegans lifespan Test A (observations carried out earlier); type: in vivo; details: day 15, 0.1%, 50 worms per group
Experimental: C. elegans study performed for the present disclosure is a follow-up and repetition of the observations carried out earlier (referred as Test A here). The results of the current C. elegans study (Test B) were recorded with higher number of animals compared to the Test A (50 worms per treated groups versus 130 worms per groups). Nematodes were maintained and propagated on Nematode Growth Medium—(NGM) containing plates and fed with Escherichia coli OP50 bacteria. The C. elegans strain used in this study is Bristol (N2) as wild-type.

Conductivity ([1]; 0.05%): 35.3 μS · cm^−1
Conductivity ([1]; 0.10%): 39.0 μS · cm^−1
Viscosity (25 C.) ([2]; 0.05%): 0.91 cP
Viscosity (25 C.) ([2]; 0.10%): 0.92 cP
Viscosity (25 C.) ([2]; 1.00%): 0.97 cP
Viscosity (25 C.) ([2]; 2.00%): 1.06 cP
Turbidity (Abs, λ = 410 nm) [3]: 0.003 Abs
Visual Inspection ([4]; 0.05%): clear
Visual Inspection ([4]; 0.10%): clear
Visual Inspection ([4]; 1.00%): clear
Visual Inspection ([4]; 2.00%): clear
Surface Tension ([5]; 0.05%): 72 mN · m^−1
Surface Tension ([5]; 0.10%): 72 mN · m^−1
Surface Tension ([5]; 1.00%): 72 mN · m^−1
Surface Tension ([5]; 2.00%): 73 mN · m^−1
Osmolality ([6]; 0.05%): 0 mOsm/kg
Osmolality ([6]; 0.10%): 2 mOsm/kg
Osmolality ([6]; 2.00%): 18 mOsm/kg
SMILES: OC[C@H]1O[C@@H]2O[C@H]3[C@H](O)[C@@H](O)[C@@H](O[C@H]4[C@H](O)[C@@H](O)[C@@H](O[C@H]5[C@H](O)[C@@H](O)[C@@H](O[C@H]6[C@H](O)[C@@H](O)[C@@H](O[C@H]7[C@H](O)[C@@H](O)[C@@H](O[C@H]1[C@H](O)[C@H]2O)O[C@@H]7CO)O[C@@H]6CO)O[C@@H]5CO)O[C@@H]4CO)O[C@@H]3CO [Alpha Cyclodextrin, α-cyclodextrin]
number of animals surviving to old ages (C. elegans [7]; after day 15, 0.1% w/w): significantly increased
Animals alive, % of initial (C. elegans [7]; life span 10 days): 100 % of initial
Animals alive, % of initial (C. elegans [7]; life span 15 days): 20 % of initial
Animals alive, % of initial (C. elegans [7]; life span 18 days): 2 % of initial
Fraction of worms alive (C. elegans [8]; Test B, day 15, 0.1%, 130 worms per group, tap water media): 20%
effect on lifespan (C. elegans [8]; all three studied concentrations (0.05, 0.1, 0.5%)): significant
average lifespan (C. elegans [8]; control animals 12.33 days): 13.25 days
Fraction of worms alive (C. elegans [9]): 25%
